The target of experiment [1] is PD-1/PD-L1 interaction (Homo sapiens (Human), UniProt Q9NZQ7). Nature of the experiment: HTRF PD-1/PD-L1 binding assay. The class given is biochemical. Also on record: key to HTF assay (100 μM): +: positive compounds using 100 μM on HTRF. A general note: TR-FRET usually uses a lanthanide donor and a delayed reading to cut background.
The subject of experiment [2] is PD-1/PD-L1 interaction on A375 cells. Nature of the experiment: Cell-based PD-1/PD-L1 inhibition (accessible PD-L1 by flow cytometry), A375. Also on record: species or system human. The note with it: Homo sapiens, A-375; A375 stimulated with IFN-γ; 72 hours. Here is the method:
PD-1/PD-L1 Inhibition on Human Melanoma and Breast Cancer Cell Lines:
Cells (0.1×10^6 cells) were tested for PD-1/PD-L1 inhibition by co-incubation of hit compounds, DMSO (background), BMS-202 (Selleckchem) and anti-human PD-L1 (BioxCell, Clone 29E.2A3) (positive controls) for 72 hours in 2 ml DMEM medium. Non-confluent cell cultures were scraped into single-cell suspension, washed with PBS, and counted. Cells were subsequently stained with PD-1 fluorescent proxy for 30 minutes at 4° C., washed twice and resuspended in FACS buffer. Cells were analyzed using BD LSRFortessa (BD Biosciences) and data analyzed with FlowJo software for Mac (FlowJo, LLC 2013-2016). Mean fluorescence intensity (MFI) was derived from each sample. The PD-1/PD-L1 inhibition in cells was measured by a decrease in MFI relative to background.
The remaining accessible PD-L1 was determined by flow cytometry.
A general note: A flow cytometer gives signals particle by particle.

In experiment [3] the test system is patient-derived tumor cells and autologous PBMC (CD8+ T cells). The experiment can be described thus: Co-culture of patient-derived PBMC and autologous tumor cells. The class given is cell-based, human. The note with it: 72 hours of co-culture; 7 patients. Here is the method:
Tumor—Lymphocyte Co-Culture:
One day before co-culture, PBMC were re-suspended in RPMI-1640 supplemented with 150 U/ml IL-2 (Peprotech) and cultured overnight at 37° C. Prior to co-culture, tumor cells were stimulated overnight with 200 ng/ml human recombinant IFN-γ (Peprotech). The next day, tumor cells were scraped to single cells and re-suspended in RPMI. PBMC were seeded at a density of […] and stimulated with single cell-dissociated tumor cells at a 2:1 Effector:Target ratio. Co-cultures were performed in the presence of 150 U/ml IL-2 (Peprotech), 5 μg/ml of anti-CD28 (BioxCell) and αPD-L1 blocking antibody or small-molecule inhibitor for 72 hours. The cells were then stained with fluorochrome-labeled antibodies and analyzed using an LSR Fortessa (BD Biosciences) and FlowJo software. […]
The PBMC and tumor cells were co-cultured and treated with anti-CD28 (blue) and PD-L1 inhibitors (small-molecule inhibitor Compound 69 (yellow) and anti-PD-L1 (red)) for 72 hours. The PD-1/PD-L1 inhibition and T-cell activation were assessed using flow cytometry, and the obtained data is shown in FIGS. 8B-E. The anti-PD-L1 (αPD-L1) was added as the relevant control for PD-L1 inhibition.

Experiment [4] deals with patient-derived melanoma (Mel4) spheroids with autologous PBMC. Nature of the experiment: 3D patient-derived melanoma spheroid - PBMC co-culture. The class given is cell-based, human. The settings on record: vs αPD-L1 and untreated. Here is the method: 3D Patient-Derived Tumor Spheroids—Lymphocyte Co-Culture:
After isolation of tumor cells, cells were washed and cultured for up to 3 days. This allowed the isolation of adherent cells that were then scrapped and seeded in Nunclon Sphera 96-well plate (Thermo Fisher Scientific) to create a unique uniform spheroid in each well. Spheroids were ready on day 2-5. Thereafter, spheroids were embedded in reduced growth Matrigel (Corning) with PBMC (1:100) and were left untreated or were treated with the small-molecule inhibitor Compound 69 or αPD-L1, dissolved in the appropriate cell culture medium.
3D co-culture was fixed with 4% paraformaldehyde and blocked by PBS with 2% (m/v) BSA. Thereafter, the samples were incubated with CD8 (MA5-16345—Invitrogen) (1:50) in PBS with 1% (v/v) Tween® 20 for 18 hours at 4° C. Then, 4 μg/ml of secondary antibody (A-11008, Invitrogen) were added, 3D spheroids were stained with Hoechst 33342 (10 μg/ml) for 20 minutes. […] The different z-stacks were merged and analyzed by Fiji-ImageJ.
The ability of PD-1/PD-L1 inhibitors (small-molecule inhibitor Compound 69 and αPD-L1) to promote CD8^+ T-cell infiltration into the tumor site was evaluated using a 3D co-culture system. […] The CD8^+ T-cell infiltration (green) was evaluated after 72 hours of co-culture by confocal microscopy. […]

What is called IC50 is the concentration at which inhibition is half-maximal.

“Also recorded” adds a separate entry of the source.

Chain of PD-1/PD-L1 interaction (Q9NZQ7 19-238): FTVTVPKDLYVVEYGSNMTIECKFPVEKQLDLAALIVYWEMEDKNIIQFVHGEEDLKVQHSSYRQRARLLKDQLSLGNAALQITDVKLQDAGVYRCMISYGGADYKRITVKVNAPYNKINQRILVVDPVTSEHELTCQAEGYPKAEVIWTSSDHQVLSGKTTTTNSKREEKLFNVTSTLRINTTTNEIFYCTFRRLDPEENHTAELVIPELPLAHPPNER

For `CCCCCN(CCCCC)C(C)C(=O)c1cc(C)c2ccc3cc(C(C)C)ccc3c2c1.Cl` (stereo not drawn) [Compound 69], the IC50 in experiment [1] (HTRF dose-response starting from 100 μM) was 0.196 µM; in experiment [1] (Table A, HTRF dose-response, NA = Not applicable (No dose-response effect)) it was 0.196 µM; in experiment [1] (Table B, HTRF dose-response, NA = no dose-response effect) it was 0.196 µM; in experiment [2] it was 1 µM. Besides, the “HTF assay (100 μM)” value in experiment [1] (compounds at 100 μM, hits defined as at least 50% inhibition of PD-1/PD-L1 interaction) is “+”. In experiment [3], the “CD107a upregulation in CD8+ T cells” value was “induced”. For the same molecule, in experiment [3], the “IFN-γ secretion in CD8+ T cells” value is “induced”. The “CD8+ T cell infiltration within the tumor spheroid” value in experiment [4] (72 hours of co-culture) is “higher CD8^+ T cell infiltration”. In experiment [4] (Mel4 spheroids), the “sprouting of patient-derived melanoma cells” value is given as “inhibited the melanoma cells sprouting; also recorded: strongly inhibited the sprouting”.

The values above are taken from patent publication US20230390287A1, “MODULATORS OF PD-L1/PD-1 INTERACTION AND USES THEREOF” (Ramot at Tel-Aviv University Ltd., priority 2021, published 2023).
